Results reported in ChEMBL document CHEMBL1909046, “DrugMatrix in vitro pharmacology data”.

Legend:
[1] = target: Beta-3 adrenergic receptor (Homo sapiens, UniProt P13945); assay: DRUGMATRIX: Adrenergic beta3 radioligand binding (ligand: [125I] Cyanopindolol); format: cell membranes, HEK293, Membrane; details: hek293; Not Active = under 50% inhibition at 10 µM
[2] = DRUGMATRIX: beta-Lactamase enzyme inhibition (substrate: Nitrocefin); design: species or system Bacillus cereus; details: Not Active = under 50% inhibition at 10 µM
[3] = DRUGMATRIX: Calcium Channel Type L, Dihydropyridine radioligand binding (ligand: [3H] Nitrendipine); format: cell membranes, Rattus norvegicus, Wistar, Cerebral cortex, Membrane; details: Not Active = under 50% inhibition at 10 µM
[4] = DRUGMATRIX: Glutamate, NMDA, Phencyclidine radioligand binding (ligand: [3H] TCP); format: cell membranes, Rattus norvegicus, Wistar, Cerebral cortex, Membrane; details: Not Active = under 50% inhibition at 10 µM
[5] = DRUGMATRIX: Leukotriene, BLT (LTB4) radioligand binding (ligand: [3H]LTB4); format: cell membranes, Membrane; details: u-937; Not Active = under 50% inhibition at 10 µM
[6] = DRUGMATRIX: Nicotinic Acetylcholine radioligand binding (ligand: [125I] Epibatidine); format: cell membranes, Membrane; details: imr-32; Not Active = under 50% inhibition at 10 µM

Chain of Beta-3 adrenergic receptor (P13945 whole entry): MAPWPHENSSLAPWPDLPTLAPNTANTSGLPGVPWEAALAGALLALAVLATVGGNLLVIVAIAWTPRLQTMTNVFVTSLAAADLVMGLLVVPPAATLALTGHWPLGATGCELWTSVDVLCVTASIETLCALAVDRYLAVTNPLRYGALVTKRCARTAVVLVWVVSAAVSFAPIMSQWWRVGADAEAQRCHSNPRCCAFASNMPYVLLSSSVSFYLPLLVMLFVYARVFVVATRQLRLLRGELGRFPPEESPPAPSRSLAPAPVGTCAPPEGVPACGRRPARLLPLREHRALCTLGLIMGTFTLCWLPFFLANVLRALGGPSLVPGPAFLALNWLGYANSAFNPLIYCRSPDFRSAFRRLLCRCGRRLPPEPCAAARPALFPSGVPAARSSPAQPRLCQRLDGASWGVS

| SMILES | IC50 [1] | IC50 [2] | Ki [2] | IC50 [3] | Ki [3] | IC50 [4] | Ki [4] | IC50 [5] | Ki [5] | IC50 [6] | Ki [6] | IC50 ([3]; read-out: IC50) [µM] | Ki ([3]; read-out: Ki) [µM] |
| --- | --- | --- | --- | --- | --- | --- | --- | --- | --- | --- | --- | --- | --- |
| COc1nc(C)nc(Cl)c1NC1=NCCN1 [MOXONIDINE] | Not Active | Not Active | Not Active | Not Active | Not Active | Not Active | Not Active | Not Active | Not Active | Not Active | Not Active |  |  |
| N[C@@H](Cc1ccc(O)c(O)c1)C(=O)O [LEVODOPA] | Not Active | Not Active | Not Active | Not Active | Not Active | Not Active | Not Active | Not Active | Not Active | Not Active | Not Active |  |  |
| OCCN(CCO)c1nc(N2CCCCC2)c2nc(N(CCO)CCO)nc(N3CCCCC3)c2n1 [DIPYRIDAMOLE] | Not Active | Not Active | Not Active | Not Active | Not Active | Not Active | Not Active | Not Active | Not Active | Not Active | Not Active |  |  |
| Cn1ccnc1S [METHIMAZOLE] | Not Active | Not Active | Not Active | Not Active | Not Active | Not Active | Not Active | Not Active | Not Active | Not Active | Not Active |  |  |
| CC(=O)[C@@]1(O)CC[C@H]2[C@@H]3C[C@H](C)C4=CC(=O)CC[C@]4(C)[C@H]3CC[C@@]21C | Not Active | Not Active | Not Active | Not Active | Not Active | Not Active | Not Active | Not Active | Not Active | Not Active | Not Active |  |  |
| C=CCC1(C(C)CCC)C(=O)NC(=O)NC1=O (centres undefined) [SECOBARBITAL] | Not Active | Not Active | Not Active | Not Active | Not Active | Not Active | Not Active | Not Active | Not Active | Not Active | Not Active |  |  |
| C[C@@H]1CN(c2c(F)c(N)c3c(=O)c(C(=O)O)cn(C4CC4)c3c2F)C[C@H](C)N1 [SPARFLOXACIN] | Not Active | Not Active | Not Active | Not Active | Not Active | Not Active | Not Active | Not Active | Not Active | Not Active | Not Active |  |  |
| O=c1ncn2nc(Sc3ccc(F)cc3F)ccc2c1-c1c(Cl)cccc1Cl [NEFLAMAPIMOD] | Not Active | Not Active | Not Active |  |  | Not Active | Not Active | Not Active | Not Active | Not Active | Not Active | 38.9 | 25 |
| Nc1c2c(nc3ccccc13)CCCC2 [TACRINE] | Not Active | Not Active | Not Active | Not Active | Not Active | Not Active | Not Active | Not Active | Not Active | Not Active | Not Active |  |  |
| CO[C@H]1/C=C/O[C@@]2(C)Oc3c(C)c(O)c4c(O)c(c(/C=N/N5CCN(C)CC5)c(O)c4c3C2=O)NC(=O)/C(C)=C\C=C\[C@H](C)[C@H](O)[C@@H](C)[C@@H](O)[C@@H](C)[C@H](OC(C)=O)[C@@H]1C [RIFAMPIN] | Not Active | Not Active | Not Active | Not Active | Not Active | Not Active | Not Active | Not Active | Not Active | Not Active | Not Active |  |  |
| CCOC(=O)N1CCC(=C2c3ccc(Cl)cc3CCc3cccnc32)CC1 [LORATADINE] | Not Active | Not Active | Not Active | Not Active | Not Active | Not Active | Not Active | Not Active | Not Active | Not Active | Not Active |  |  |
| N[C@@H](Cc1ccc(N(CCCl)CCCl)cc1)C(=O)O | Not Active | Not Active | Not Active | Not Active | Not Active | Not Active | Not Active | Not Active | Not Active | Not Active | Not Active |  |  |
| Cc1noc(NS(=O)(=O)c2ccc(N)cc2)c1C [SULFISOXAZOLE] | Not Active | Not Active | Not Active | Not Active | Not Active | Not Active | Not Active | Not Active | Not Active | Not Active | Not Active |  |  |
| N[C@@H](Cc1cc(I)c(Oc2ccc(O)c(I)c2)c(I)c1)C(=O)O [LIOTHYRONINE] | Not Active |  |  |  |  |  |  |  |  |  |  |  |  |
